Holding throughout (assay type): functional
In assay [1] the test system is MDA-MB-468. The assay is described as follows: Cytotoxicity against human MDA-MB-468 cells assessed as cellular growth at 10 uM by SRB assay. For orientation: The SRB assay estimates cell density from bound dye.
In assay [2] the test system is UO-31. The assay is described as follows: Cytotoxicity against human UO31 cells assessed as cellular growth at 10 uM by SRB assay.
In assay [3] the test system is TK-10. Description: Cytotoxicity against human TK10 cells assessed as cellular growth at 10 uM by SRB assay.
The test system of assay [4] is RXF 393. The assay is described as follows: Cytotoxicity against human RXF393 cells assessed as cellular growth at 10 uM by SRB assay.
Assay [5] relates to SK-OV-3. The assay is described as follows: Cytotoxicity against human SKOV3 cells assessed as cellular growth at 10 uM by SRB assay.
The nature of assay [6]: Cytotoxicity against human NCI-ADR-RES cells assessed as cellular growth at 10 uM by SRB assay.
In assay [7] the test system is OVCAR-8. Description: Cytotoxicity against human OVCAR8 cells assessed as cellular growth at 10 uM by SRB assay.
Assay [8] has as its system IGROV-1. The assay is described as follows: Cytotoxicity against human IGROV1 cells assessed as cellular growth at 10 uM by SRB assay.
Assay [9] deals with UACC-257. The assay is described as follows: Cytotoxicity against human UACC257 cells assessed as cellular growth at 10 uM by SRB assay.
Assay [10] deals with SK-MEL-2. Description: Cytotoxicity against human SK-MEL-2 cells assessed as cellular growth at 10 uM by SRB assay.
Assay [11] has as its system U-251. The assay is described as follows: Cytotoxicity against human U251 cells assessed as cellular growth at 10 uM by SRB assay.
Assay [12] concerns SNB-75. Description: Cytotoxicity against human SNB75 cells assessed as cellular growth at 10 uM by SRB assay.
The test system of assay [13] is SNB-19. The assay is described as follows: Cytotoxicity against human SNB19 cells assessed as cellular growth at 10 uM by SRB assay.
Assay [14] concerns KM12. Description: Cytotoxicity against human KM12 cells assessed as cellular growth at 10 uM by SRB assay.
The subject of assay [15] is COLO 205. Description: Cytotoxicity against human COLO205 cells assessed as cellular growth at 10 uM by SRB assay.
The subject of assay [16] is NCI-H460. Description: Cytotoxicity against human NCI-H460 cells assessed as cellular growth at 10 uM by SRB assay.
The subject of assay [17] is EKVX. Description: Cytotoxicity against human EKVX cells assessed as cellular growth at 10 uM by SRB assay.
In assay [18] the test system is A549. Description: Cytotoxicity against human A549 cells assessed as cellular growth at 10 uM by SRB assay.
Assay [19] deals with CCRF-CEM. Description: Cytotoxicity against human CCRF-CEM cells assessed as cellular growth at 10 uM by SRB assay.
Assay [20] deals with A498. The assay is described as follows: Cytotoxicity against human A498 cells assessed as cellular growth at 10 uM by SRB assay.

Regarding `O=c1/c(=C/c2ccccc2Cl)sc2nc(-c3ccccc3)nn12`, the Activity is given as 96.99% in [1]; 58.67% in assay [2]; 123.92% in assay [3]; 99.76% in assay [4]; 104.04% in assay [5]; 90.47% in assay [6]. The Activity in assay [7] is 97.99%; in [8] it was 96.71%; in assay [9] it was 85.66%; in assay [10] it was 100.14%; in assay [11] it was 89.87%; in [12], 64.38%. The Activity turned out to be 90.58% in [13]; 89.57% in assay [14]; 113.47% in [15]; 99.8% in assay [16]; 99.45% in assay [17]; 87.55% in assay [18]. Also, the Activity in assay [19] stood at 56.07%.

Consider `N#Cc1ccc(-n2nnc3ccccc32)cc1C#N`, for which the Activity in [1] is given as 99.52%; in assay [2], 88.55%; in assay [3] it was 133.56%; in [4], 100.39%; in [20] it was 72.76%; in [5], 98.76%. The Activity in [6] is recorded as 100.66%; in [7], 99.01%; in assay [8] it was 103.62%; in assay [9], 89.4%; in assay [11], 91.31%; in assay [12] it was 120.55%. Besides, the Activity was found to be 112.27% in assay [13]; 96.37% in assay [14]; 104.26% in [15]; 106.55% in assay [16]; 79.18% in assay [17]; 87.19% in assay [18]. In assay [19], the Activity amounted to 93.15%.

With `Cc1ccc(NC(=O)c2sc3nc4c(cc3c2N)C(=O)CCC4)c(Br)c1`, the Activity came to 106.56% in assay [1]; 94.06% in [2]; 131.53% in [3]; 118.46% in assay [4]; 83.73% in [20]; 92.59% in [5]. Moreover, the Activity is listed as 102.67% in assay [6]; 98.57% in assay [7]; 112.76% in assay [8]; 96.22% in assay [9]; 94.7% in assay [11]; 107.29% in [12]. Moreover, the Activity in [13] worked out at 100.23%; in [14], 97.82%; in assay [15], 113.39%; in assay [16], 101.57%; in [17], 89.55%; in [18] it was 92.09%. Moreover, the Activity in [19] came to 103.07%.

Turning to `COc1ccc(Cl)cc1C(=O)Nc1nc2ccc(Cl)cc2s1`, the Activity in assay [1] amounted to 76.66%; in assay [2], 58.24%; in [3], 126.89%; in assay [4], 95.02%; in assay [5], 91.86%; in assay [6], 101.67%. Besides, the Activity in assay [7] stood at 88.9%; in [8] it was 65.9%; in [9], 101.95%; in [10], 103.7%; in assay [11], 87.26%; in assay [12] it was 74.28%. For the same compound, the Activity in [13] was 102.79%; in assay [14], 94.77%; in assay [15] it was 82.83%; in assay [16] it was 93.65%; in assay [17] it was 76.23%; in assay [18], 76.66%. The Activity in [19] came to 86.4%.

As to `Nc1c(C(=O)Nc2ccc(Cl)c(Cl)c2)sc2nc(-c3cccs3)ccc12`, the Activity was 19.37% in assay [1]; 83.99% in [2]; 87.49% in assay [3]; 92.71% in assay [4]; 105.1% in assay [5]; 75.02% in [6]. The Activity is on record as 98.27% in assay [7]; 122.32% in [8]; 91.24% in assay [9]; 58.47% in [10]; 83.86% in assay [11]; 86.26% in assay [12]. Further, the Activity in assay [13] came out at 95.32%; in [14], 99.94%; in assay [15], 115.1%; in assay [16], 103.53%; in assay [17] it was 93.39%; in [18] it was 54.62%. In addition, the Activity in assay [19] is recorded as 82.99%.

Turning to `Nc1c(C(=O)Nc2ccccc2F)sc2nc3c(cc12)C(=O)CCC3`, the Activity is recorded as -15.24% in assay [1]; 76% in assay [2]; 59.66% in assay [3]; 9.63% in assay [4]; -1.01% in [20]; 13.58% in [5]. The Activity in assay [6] was -4.39%; in assay [7], 58.62%; in [9], 66.94%; in assay [10] it was 42.64%; in assay [11], 31.63%; in assay [12], 13.66%. Moreover, the Activity was determined as 41.11% in assay [13]; 24.63% in assay [14]; 5.76% in assay [15]; 11.41% in [16]; 56.31% in assay [17]; 22.02% in assay [18]. The Activity in [19] was 26.78%.

`O=S(=O)(Oc1ccc(-c2cnc3ccccc3n2)cc1)c1ccc2ccccc2c1`: the Activity is listed as 85.1% in [1]; 118.94% in [2]; 94.33% in [3]; 110% in assay [4]; 85.21% in assay [20]; 102.69% in assay [5]. For the same compound, the Activity in assay [6] worked out at 104.07%; in assay [7], 110.71%; in assay [9] it was 114.11%; in assay [10], 107.17%; in assay [11], 104.05%; in [12], 119.77%. Moreover, the Activity in [13] stood at 99.88%; in [14] it was 101.08%; in assay [15], 121.42%; in [16] it was 96.28%; in assay [17] it was 94.26%; in assay [18] it was 102.43%. In assay [19], the Activity is 90.35%.

On to `Cc1ccc2c(c1)N/C(=C/C(=O)c1ccc(Cl)cc1)C(=O)O2`, for which the Activity in assay [1] is listed as 107.35%; in assay [2], 94.15%; in [3] it was 131.96%; in assay [4], 111.43%; in assay [5], 110.03%; in [6], 104%. For the same compound, the Activity in assay [7] was found to be 101.66%; in [8], 136.06%; in [9] it was 97.03%; in [10], 108.87%; in assay [11], 100.94%; in assay [12], 86.32%. Besides, the Activity in assay [13] was found to be 105.39%; in assay [14], 102.59%; in assay [15], 118.18%; in [16] it was 109.79%; in [17], 106.62%; in assay [18] it was 92.75%. Also, in assay [19], the Activity was 65.56%.

Consider `Cc1ccc(C2=N/C(=C\c3ccccc3)C(=O)O2)cc1`, for which the Activity in assay [1] was found to be 99.59%; in [2], 102.89%; in assay [3] it was 112.19%; in assay [4] it was 130.71%; in assay [5], 109.52%; in [6], 107.34%. For the same compound, the Activity in assay [7] was 102.69%; in [9], 101.52%; in [10], 108.55%; in assay [11] it was 107.92%; in assay [12], 90.22%; in [13], 103.53%. In addition, the Activity in [14] turned out to be 108.78%; in assay [15], 122.06%; in assay [16], 109.3%; in [17], 90.26%; in assay [18], 107.01%; in [19], 94.95%.

As to `CC1(C)CCc2cc(-c3ccn(S(=O)(=O)c4ccc(Cl)cc4)n3)ccc2O1`, the Activity was found to be 48.91% in [1]; 75.63% in assay [2]; 76.99% in assay [3]; 89.02% in [4]; 70.82% in [20]; 91.35% in assay [5]. Besides, the Activity in assay [6] is reported as 69.31%; in [7], 86.61%; in assay [9] it was 64.88%; in assay [10] it was 92.25%; in [11] it was 74.2%; in [12], 92.32%. For the same compound, the Activity in [13] stood at 100.09%; in [14] it was 77%; in assay [15], 116.9%; in assay [16], 73.79%; in [17], 54.5%; in [18], 67.37%. Moreover, the Activity in assay [19] was 64.16%.

For the compound `Clc1ccc(-c2nc(-c3cccs3)no2)cc1`, the Activity in assay [1] is listed as 3.37%; in assay [2], 74.13%; in assay [3], 109.61%; in assay [4], 112.7%; in assay [20], 93.08%; in assay [5], 106.04%. The Activity came to 106.94% in [6]; 106.56% in assay [7]; 109.98% in assay [9]; 116.4% in assay [10]; 90.3% in assay [11]; 81.53% in [12]. Further, the Activity was found to be 103.81% in assay [13]; 92.39% in assay [14]; 113.89% in [15]; 110.35% in assay [16]; 85.36% in [17]; 94.07% in assay [18]. For the same compound, in [19], the Activity amounted to 78.29%.

Source of the values: ChEMBL document CHEMBL2202954, “The effect of PLC-γ2 inhibitors on the growth of human tumour cells” (2012).
